Experiments:
[1] = tested on: human uterine cervical cancer cell line (Hela-Luc); assay: Evaluation of the anti-tumor effect (1), Hela-Luc subcutaneous transplant; conditions: for BWC (body weight change) / RTV (relative tumor volume): paclitaxel 30 mg/kg i.v. day 1, compound 60 mg/kg orally twice a day on day 2 and day 3; for potentiation of the anti-tumor effect of paclitaxel (in words): combination with paclitaxel versus paclitaxel-only group
Description: The luciferase-introduced human uterine cervical cancer cell line (Hela-Luc) was subcutaneously transplanted into a nude mouse, and when the volume of the grafted tumor reached 100 to 200 mm^3, five mice in one group were grouped into the single drug administration group and combinational administration group by a randomized stratification method so as to achieve a uniform tumor volume in each group (day 1). […] In order to compare the anti-tumor effect brought about by drug administration, setting the tumor volume at the time of grouping at 1, the relative tumor volume (RTV) was determined in accordance with the following formula as a rate of tumor proliferation. RTV=(Tumor volume on the day of measurement of tumor volume)/(Tumor volume at the time of grouping)
Meanwhile, as the index of systemic toxicity caused by drug administration, the body weight change (BWC) was used. BWC (%)=([(Body weight of mouse on the day of body weight measurement)−(Body weight of mouse at the time of grouping)]/(Body weight of mouse at the time of grouping))×100

human aurora A = human aurora A (Homo sapiens (Human), UniProt O14965); assay: Inhibitory activity on aurora A kinase (IMAP fluorescence polarization); format: biochemical
Sequence of human aurora A (O14965 whole entry): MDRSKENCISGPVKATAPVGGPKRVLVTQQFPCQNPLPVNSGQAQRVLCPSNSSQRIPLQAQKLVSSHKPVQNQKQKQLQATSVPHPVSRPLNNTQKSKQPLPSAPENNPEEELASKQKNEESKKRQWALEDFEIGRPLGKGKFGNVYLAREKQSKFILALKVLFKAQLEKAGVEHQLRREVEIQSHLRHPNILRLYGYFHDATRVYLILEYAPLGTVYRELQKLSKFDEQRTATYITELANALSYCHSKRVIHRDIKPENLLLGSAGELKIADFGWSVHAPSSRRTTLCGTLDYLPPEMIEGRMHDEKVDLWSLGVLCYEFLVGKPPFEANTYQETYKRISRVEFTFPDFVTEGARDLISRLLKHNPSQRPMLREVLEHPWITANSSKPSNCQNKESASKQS
Protocol: (§1) The inhibitory activity of a test compound on aurora A and aurora B was measured in accordance with the following method.
The cDNA encoding human aurora A having a N-term fused histidine tag was inserted into an expression vector and this protein was expressed at a high level in the E. coli BL21-CodonPlus (DE3)-RIL strain. The E. coli were collected and solubilized, and histidine tag-fused human aurora A protein was extracted by adsorption to a nickel chelate column and then eluted with imidazole from the column. The active fraction was desalted with a desalting column, whereby a purified enzyme was obtained.

human aurora B = human aurora B (Homo sapiens (Human), UniProt Q96GD4); assay: Inhibitory activity on aurora B kinase; format: biochemical; conditions: ATP 40 μM, 60 minutes
Sequence of human aurora B (Q96GD4 whole entry): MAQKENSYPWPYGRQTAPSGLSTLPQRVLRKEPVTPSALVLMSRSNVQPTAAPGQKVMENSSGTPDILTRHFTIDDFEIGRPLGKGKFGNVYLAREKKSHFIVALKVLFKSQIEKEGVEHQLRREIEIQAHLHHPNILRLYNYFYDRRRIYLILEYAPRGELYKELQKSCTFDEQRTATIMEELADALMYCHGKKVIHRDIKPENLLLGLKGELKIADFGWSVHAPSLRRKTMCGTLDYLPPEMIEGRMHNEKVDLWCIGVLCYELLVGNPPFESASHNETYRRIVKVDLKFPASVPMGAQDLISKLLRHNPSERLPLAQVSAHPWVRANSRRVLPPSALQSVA
Sequence of human aurora B (Q9NQS7 803-918 partner): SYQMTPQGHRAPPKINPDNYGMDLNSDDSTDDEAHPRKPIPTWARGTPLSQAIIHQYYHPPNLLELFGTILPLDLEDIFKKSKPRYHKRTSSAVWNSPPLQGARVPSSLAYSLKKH
Protocol: as §1

[2] = Evaluation of oral absorbability (plasma concentration after oral administration); format: in vivo; conditions: 0.5% HPMC, BALB/cA mouse, plasma 0.5-6 hours
Protocol: The test compound was suspended or dissolved in 0.5% HPMC and orally administered to a BALB/cA mouse. The blood was drawn from the retro-orbital venous plexus 0.5, 1, 2, 4, and 6 hours after oral administration to obtain plasma. The concentration of the compound in the plasma thus obtained was measured by LCMS and the oral absorbability was evaluated.

[3] = tested on: human uterine cervical cancer cell line (Hela-Luc); assay: Evaluation of the anti-tumor effect (2), Hela-Luc subcutaneous transplant; format: in vivo, nude mouse; conditions: for BWC (body weight change) / RTV (relative tumor volume): Day 11, paclitaxel 20 mg/kg i.v. day 1; for potentiation of the anti-tumor effect of paclitaxel (in words): combination with paclitaxel versus paclitaxel-only group
[4] = Compound 13 30 mg/kg orally twice a day on day 2 and day 3
[5] = Compound 22 100 mg/kg (single) or 60 mg/kg (combination) orally twice a day on day 2 and day 3

What does the source list for `O=C(c1cccc(Cl)c1F)N1CCC(Cc2cccc(Nc3cc[nH]n3)n2)(c2n[nH]c(=O)o2)CC1` [Comparative Example 1, 5-(1-(3-chloro-2-fluorobenzoyl)-4-((6-(1H-pyrazol-3-ylamino)pyridin-2-yl)methyl)piperidin-4-yl)-1,3,4-oxadiazol-2(3H)-one]?
BWC (body weight change) ([1]; Day 23): 11.6%; RTV (relative tumor volume) ([1]; Day 23): 15.23; potentiation of the anti-tumor effect of paclitaxel (in words) [1]: did not clearly potentiate the anti-tumor effect

Which IC50 (human aurora A; ATP 5 μM, 25° C., 50 minutes) does the source give for `Cc1cc(Nc2nc(CC3(C(=O)O)CCN(C(=O)c4cccc(Cl)c4F)CC3)ccc2C#N)n[nH]1` [Comparative Example 6, 1-(3-chloro-2-fluorobenzoyl)-4-((5-cyano-6-(5-methyl-H-pyrazol-3-ylamino)pyridin-2-yl)methyl)piperidine-4-carboxylic acid] here?
The IC50 was 220 nM.

And the “inhibitory activity on aurora A and selectivity for aurora A (in words)” value (human aurora A; compared with aurora B and with MLN8237)?
The value was “did not exhibit either inhibitory activity on aurora A or selectivity for aurora A”.

And the IC50 (human aurora B)?
The IC50 was 320 nM.

For `Cc1cc(Nc2nc(CC3(C(=O)O)CCN(C(=O)c4cccc(Cl)c4Cl)CC3)ccc2F)n[nH]1` [Example 1, 1-(2,3-dichlorobenzoyl)-4-((5-fluoro-6-(5-methyl-1H-pyrazol-3-ylamino)pyridin-2-yl)methyl)piperidine-4-carboxylic acid], which “oral absorbability (plasma concentration after oral administration)” value (“oral absorbability” below) [2] is on record?
The value was “favorable oral absorbability”.

And the “BWC (body weight change)” value ([1]; Day 23)?
The value was 11.6%.

What about the “RTV (relative tumor volume)” value ([1]; Day 23) of the same molecule?
The value was 10.47.

And the “potentiation of the anti-tumor effect of paclitaxel (in words)” value (“potentiation” below) [1]?
The value was “remarkably potentiated”.

Which “oral absorbability” value [2] does the source give for `COc1ccc(CC2(C(=O)O)CCN(C(=O)c3cccc(Cl)c3F)CC2)nc1Nc1cc(C)[nH]n1` [Example 11, 1-(3-chloro-2-fluorobenzoyl)-4-((5-methoxy-6-(5-methyl-1H-pyrazol-3-ylamino)pyridin-2-yl)methyl)piperidine-4-carboxylic acid] here?
Its value is “favorable oral absorbability”.

For `Cc1cc(Nc2nc(CC3(C(=O)O)CCN(C(=O)c4cccc(Cl)c4F)CC3)ccc2Cl)n[nH]1` [Example 12, 1-(3-chloro-2-fluorobenzoyl)-4-((5-chloro-6-(5-methyl-1H-pyrazol-3-ylamino)pyridin-2-yl)methyl)piperidine-4-carboxylic acid], which “oral absorbability” value [2] is on record?
Its value is “favorable oral absorbability”.

With `Cc1cc(Nc2nc(CC3(C(=O)O)CCN(C(=O)c4cccc(Cl)c4F)CC3)ccc2F)n[nH]1` [Example 13, 1-(3-chloro-2-fluorobenzoyl)-4-((5-fluoro-6-(5-methyl-1H-pyrazol-3-ylamino)pyridin-2-yl)methyl)piperidine-4-carboxylic acid] as the molecule, how does the “oral absorbability” value [2] read?
The value was “favorable oral absorbability”.

What about the “BWC (body weight change)” value [3, 4] of the same molecule?
Its value is 6.0%.

And the “RTV (relative tumor volume)” value [3, 4]?
The value was 6.54.

What about the “potentiation” value [3] of the same molecule?
Its value is “remarkably potentiated”.

Which IC50 (human aurora B) does the source give for `Cc1cc(Nc2nc(CC3(C(=O)N4CCC4)CCN(C(=O)c4cccc(Cl)c4F)CC3)ccc2F)n[nH]1` [Example 19, azetidin-1-yl(1-(3-chloro-2-fluorobenzoyl)-4-((5-fluoro-6-(5-methyl-1H-pyrazol-3-ylamino)pyridin-2-yl)methyl)piperidin-4-yl)methanone] here?
Its IC50 is 680 nM.

For `Cc1cc(Nc2nc(CC3(c4noc(C)n4)CCN(C(=O)c4cccc(Cl)c4F)CC3)ccc2F)n[nH]1` [Example 22, (3-chloro-2-fluorophenyl)(4-((5-fluoro-6-(5-methyl-1H-pyrazol-3-ylamino)pyridin-2-yl)methyl)-4-(5-methyl-1,2,4-oxadiazol-3-yl)piperidin-1-yl)methanone], which “oral absorbability” value [2] is on record?
The value was “favorable oral absorbability”.

What about the “BWC (body weight change)” value [3, 5] of the same molecule?
The value was 6.9%.

What about the “RTV (relative tumor volume)” value [3, 5] of the same molecule?
Its value is 4.66.

And the “potentiation” value [3]?
The value was “remarkably potentiated”.

Which results are given for `CC(=O)O[C@H]1C(=O)[C@@]2(C)[C@H]([C@H](OC(=O)c3ccccc3)[C@]3(O)C[C@H](OC(=O)[C@H](O)[C@@H](NC(=O)c4ccccc4)c4ccccc4)C(C)=C1C3(C)C)[C@]1(OC(C)=O)CO[C@@H]1C[C@@H]2O` [Paclitaxel, paclitaxel]?
BWC (body weight change) [3, 4]: 5.4%; RTV (relative tumor volume) [3, 4]: 2.90; BWC (body weight change) [3, 5]: 7.8%; RTV (relative tumor volume) [3, 5]: 3.05; BWC (body weight change) ([1]; Day 23): 3.0%; RTV (relative tumor volume) ([1]; Day 23): 0.69; BWC (body weight change) ([1]; Day 46): 11.6%; RTV (relative tumor volume) ([1]; Day 46): 5.38; DCR (disease control rate) ([1]; Day 46, ratio of individuals in which RTV does not exceed 1): 40%
